We go through one compound from patent US11839210B1, “Plant growth promoter with strigolactones regulation activities” (King Abdullah University of Science and Technology, priority 2017, dated 2023).

The subject of one experiment is Zaxinone Synthase (ZAS). Description: qRT-PCR of ZAS transcript levels in rice after zaxinone or GR24. Format: in vivo, rice (Nipponbare). Particulars: WT rice, phosphate starvation, 5 μM, 6 h. Here is the method: (§1) Total RNA was extracted from the roots and shoots using a Qiagen Plant RNeasy Kit according to the manufacturer's instruction. cDNA was synthesized from 1 μg of total RNA using iScript cDNA Synthesis Kit (BIO-RAD Laboratories, Inc, 2000 Alfred Nobel Drive, Hercules, CA, Cat. No #170-8890) according to instructions in the user manual. For mycorrhizal samples, single-strand cDNA was synthesized from 1 μg of total RNA using Super-Script II (Invitrogen) according to instructions in the user manual. Primers used for real-time quantitative RT-PCR (qRT-PCR) analysis are listed below in Table 3. qRT-PCR was performed using SYBR Green Master Mix (Applied Biosystems; www.lifetechnologies.com) in a StepOnePlus (Life Technologies, Carlsbad, CA, USA). For mycorrhizal samples, qRT-PCR was performed using a Rotor-Gene Q 5plex HRM Platform (Qiagen). The 2-ΔCt method was used to calculate the relative gene expression levels and rice Ubiquitin (OsUBQ or OsRubQ1) gene was used as the internal control to normalize target gene expression.
FIGS. 14A-14C show transcript levels of Zaxinone Synthase (ZAS) in wild type roots and shoots. In FIG. 14A, the relative expression levels of ZAS under normal (+Pi) and phosphate-starved (−Pi) conditions in Nipponbare wild-type (WT) roots and shoots is seen. The expression levels in the WT root were normalized to 1. In FIG. 14B, the relative expression levels of ZAS under −Pi conditions with 5 μM of Zaxinone and GR24 treatment in WT rice root and shoot is seen. Three weeks-old seedlings were transferred to new hydroponic pots containing fresh media with or without chemicals for 6 h. The expression levels in the WT-mock were normalized to 1 and the expression levels were detected by qRT-PCR. Ubiquitin was used as a reference gene. Bars represent mean±SD (n=3). Mock treatment (0.1% acetone). Different letters above each bar denote significant difference following a One-way ANOVA test (P<0.05).

Experiment [1] has as its system SL biosynthesis genes (D27, CCD7, CCD8 and CO). Description: qRT-PCR of transcript levels of SL biosynthesis genes (all four together) in rice roots. Format: in vivo. Particulars: Shiokari wild-type and d3 seedlings, phosphate-starved, 5 μM, 6 h. Here is the method: For the analysis of SL transcript levels in the zas mutant, one week-old seedlings were grown hydroponically in half-strength modified Hoagland nutrient solution with K2HPO4·2H2O (+Pi) and without K2HPO4·2H2O (−Pi) for 7 days. Seedlings were further treated with zaxinone for 6 h and tissues were collected.
as §1
Two week-old seedlings were grown for another one week in −Pi solution and then transferred to new vials containing fresh −Pi solution with and without the indicated concentrations (2.5 μM, 5 μM, 10 μM and 20 μM) of zaxinone for 6 h and samples were collected. SL biosynthetic genes expression for D27 (FIG. 19A), CCD7 […], CCD8 (FIG. 19C), and CO (Carlactone oxidase-FIG. 19D) in WT and zas mutants. […] The expression levels were detected by quantitative RT-PCR. Ubiquitin was used as a reference gene and the expression levels in the WT-mock were normalized to 1. Bars represent mean±SD (n=3). Different letters above each bar denote significant difference following a One-way ANOVA test (P<0.05).
Transcript levels of SL biosynthesis genes, D27 (FIG. 24C), CCD7/D17 (FIG. 24D), CCD8/D10 (FIG. 24E) and OsCO (Carlactone oxidase—FIG. 24F) in root tissues were collected for SL quantification. The expression levels were detected by qRT-PCR. Ubiquitin was used as a reference gene and the expression levels in the WT-mock were normalized to 1. Two week-old seedlings were grown for another one week in −Pi solution and then transferred to new vials containing fresh −Pi solution with and without 5 μM of zaxinone and GR24 for 6 h and samples were collected. Bars represent mean±SD (n=3). Different letters above each bar denote significant difference following a One-way ANOVA test (P<0.05).
Background: Real-time PCR tracks product formation cycle by cycle.

Consider `CC1=C[C@H](O/C=C2/C(=O)O[C@@H]3c4ccccc4C[C@H]23)OC1=O` [GR24, reference compound], for which, in the experiment on Zaxinone Synthase (ZAS), the “ZAS transcript levels in root tissues” value is “negatively impacted”. In addition, the “SL transcript levels in roots” value in experiment [1] is “affected the transcript levels only in wild-type seedlings”.
